Like-named read-outs stand apart in the source and are kept apart here. Ends that are not written are not given here.
What was measured:
[1] = tested on: tail bleeding; conditions: rat, in vivo; for RT50 for bleeding: iv
[2] = tested on: saphenous vein bleeding; conditions: rat, in vivo
[3] = tested on: ear vein bleeding; conditions: pig, in vivo
[4] = in vivo, cited from earlier work
[5] = target: α-thrombin (UniProt P00734)
[6] = target: thrombin (Homo sapiens, UniProt P00734); test: biochemical
[7] = target: α-thrombin (UniProt P00734); test: enzyme inhibition (thrombin amidolytic activity on chromogenic substrate S2238); 0.83 nM thrombin, varying concentrations of peptide, 100 µM S2238 (100-400 µM for ultravariegin); 50 mM Tris pH 7.4, 100 mM NaCl, 1 mg/ml BSA, room temperature; tight-binding fit gives apparent Ki', Ki from Ki' for competitive inhibition; for UV011 Ki = IC50 (non-competitive inhibition assumed)

CC[C@H](C)[C@H](NC(=O)[C@H](CCC(=O)O)NC(=O)[C@H](CCC(=O)O)NC(=O)[C@H](Cc1ccccc1)NC(=O)[C@H](CC(=O)O)NC(=O)CNC(=O)[C@H](CC(N)=O)NC(=O)CNC(=O)CNC(=O)CNC(=O)CNC(=O)[C@@H]1CCCN1C(=O)[C@H](CCCNC(=N)N)NC(=O)[C@@H]1CCCN1C(=O)[C@H](N)Cc1ccccc1)C(=O)N1CCC[C@H]1C(=O)N[C@@H](CCC(=O)O)C(=O)N[C@@H](CCC(=O)O)C(=O)N[C@@H](Cc1ccc(O)cc1)C(=O)N[C@@H](CC(C)C)C(=O)O [Bivalirudin, reference compound]
Tail bleeding [1]: 20.5 min
tail bleeding time [1]: maximal bleeding
RT50 for bleeding [1]: 4.0 mg/kg/h
Sephaneous vein bleeding [2]: 4.131 min
bleeding time [3]: 45 min
half-life [4]: 25 min
plasma concentration [4]: around 2.7 µM

CC[C@H](C)[C@H](NC(=O)[C@H](C)NC(=O)[C@H](CCC(=O)O)NC(=O)[C@H](Cc1ccccc1)NC(=O)[C@H](CC(=O)O)NC(=O)[C@H](Cc1ccccc1)NC(=O)[C@@H]1CCCN1C(=O)[C@@H]1CCCN1C(=O)[C@H](C)NC(=O)[C@@H](NC(=O)[C@H](CCCCN)NC(=O)[C@H](Cc1cnc[nH]1)NC(=O)[C@H](CCSC)NC(=O)[C@H](CCCCN)NC(=O)[C@@H]1CCCN1C(=O)[C@H](CCC(=O)O)NC(=O)[C@H](C)NC(=O)[C@@H](NC(=O)[C@H](CC(=O)O)NC(=O)CNC(=O)[C@H](CCC(N)=O)NC(=O)[C@H](CC(=O)O)NC(=O)[C@@H](N)CO)C(C)C)[C@@H](C)O)C(=O)N1CCC[C@H]1C(=O)N[C@@H](CCC(=O)O)C(=O)N[C@@H](CCC(=O)O)C(=O)N[C@@H](Cc1ccc(O)cc1)C(=O)N[C@@H](CC(C)C)C(=O)N[C@@H](CC(=O)O)C(=O)N[C@@H](CC(=O)O)C(=O)N[C@@H](CCC(=O)O)C(=O)N[C@@H](CO)C(=O)O [Variegin]
Bleeding, Response time [1]: 60 min
Tail bleeding [1]: 8 min
tail bleeding time [1]: ~ 30 min
RT50 for bleeding [1]: 5.3 mg/kg
Sephaneous vein bleeding [2]: 2.613 min
bleeding time [3]: 7.7 ± 2.6 min
bleeding time ([3]; iv, 1 mg/kg): 10.3 min
average plasma concentration [4]: ~ 30 nM
half-life [4]: 52.3 ± 4.4 min
volume of distribution ([4]; pig): around 750 ml/kg

Bivalirudin (peptide)
Ki [5]: 1.78 nM

MYSTAPPGDFEEIPDDAIEE [UV011]
Ki ([6]; Ki (pM)): 1660 ± 759 pM

SDEAVRAIPKMYSTAPPGDFEEIPDDAIEE [Ultravariegin]
Tail bleeding [1]: 7.5 min
RT50 for bleeding [1]: 2.0 mg/kg
Sephaneous vein bleeding [2]: 2.252 min
bleeding time [3]: 6.2 ± 1.3 min
Ki ([6]; Ki (pM)): 4.02 pM
Ki ([6]; Ki, y-intercept of line fitted to Ki′ = Ki (1 + S/Km)): 4.2 ± 0.3 pM

SDEAVRAIPKMYSTAPPGDFETIPDDAIEE [DAA34688.1 repeat 1C]
Ki ([6]; Ki (pM)): 6.5 ± 1.3 pM

SDEAVRAIPKMYSTAPPGDFETIPDDAIEER [DAA34688.1 repeat 1B]
Ki ([6]; Ki (pM)): 20.5 ± 4.7 pM

SDEAVRAIPKMYSTAPPGDFETIPDDAIEEREMKAR [DAA34688.1 repeat 1]
Ki ([6]; Ki (pM)): 43.2 ± 8 pM

SGGHQTAVPKISKQGLGGDFEEIPSDEIIE [Avathrin, reference compound]
Ki ([6]; Ki (pM)): 624 ± 86 pM

Ultravariegin (peptide)
Ki [7]: 0.004 nM

Source: PMC8617063 (Nature Communications, 2021)
